Reference: patent EP3638219B1, “COMPOSITION COMPRISING TERPINENE-4-OL FOR THE TREATMENT OF DEMODICOSIS” (priority 2017, dated 2018)

Assays:
demodex = conditions: components of TTO; WO06119174 A1 and WO09032773 A2; cited from earlier work
[1] = Physical stability of terpinen-4-ol in aqueous media (phase separation, clarity); type: physicochemical
Description: The compositions according to the invention are physically stable, i.e. clear, transparent and without precipitates, and substantially retain the initial content of the initial ingredient.
For example, on a lab scale, terpinen-4-ol and a mixture of PPG-26 buteth-26 (b2), PEG-40 hydrogenated castor oil (b3) and trideceth-9 (b4) were mixed in water and stirred for about 30 minutes. Cocamidopropyl betaine was then added and a clear solution was obtained, which was verified as stable.

Structure (SMILES)	activity against demodex in vitro (demodex)	behaviour in aqueous media ([1]; concentrations below 2% in weight/weight of the composition, in the presence of commonly used emulsifiers and surfactants)	behaviour in aqueous media ([1]; in the presence of Tween 20 in a weight ratio to terpinen-4-ol up to 5:1)
C=C(C)C1CC=C(C)C(=O)C1 (stereo not shown) [carvone, reference compound]	active		
CC1=CCC(O)(C(C)C)CC1 (stereo not shown) [terpinen-4-ol]	active	tends to separate from aqueous media	two-phase system
